Experimental findings from PubChem BioAssay AID1259407 (Chemical Carcinogenesis Research Information System (CCRIS), 2018) are described below.

The data set concerns CCRIS mutagenicity, Ames/micronucleus/aberration tests. The data set can be described thus: CCRIS mutagenicity studies.
Where [1] appears, read: Test System: AMES SALMONELLA TYPHIMURIUM, Strain/Indicator: TA98, Metabolic Activation: NONE, Method: STANDARD PLATE.
Where [2] appears, read: Test System: AMES SALMONELLA TYPHIMURIUM, Strain/Indicator: TA100, Metabolic Activation: NONE, Method: STANDARD PLATE.

The source made the active and inactive calls. How the calls were made is not given here.

For `C=C(C)C(=O)OCCOC(=O)NCCC(C)CC(C)(C)CNC(=O)OCCOC(=O)C(=C)C` (stereo not given), the mutagenic call is, setting by setting: (Test System: AMES SALMONELLA TYPHIMURIUM, Strain/Indicator: TA97A, Metabolic Activation: NONE, Method: STANDARD PLATE) “inactive; negative”; (Test System: AMES SALMONELLA TYPHIMURIUM, Strain/Indicator: TA97A, Metabolic Activation: RAT LIVER S-9, PHENOBARBITAL AND BETA-NAPHTHAFLAVONE, Method: STANDARD PLATE) “inactive; negative”; under setting [1], “inactive; negative”; (Test System: AMES SALMONELLA TYPHIMURIUM, Strain/Indicator: TA98, Metabolic Activation: RAT LIVER S-9, PHENOBARBITAL AND BETA-NAPHTHAFLAVONE, Method: STANDARD PLATE) “inactive; negative”; under setting [2], “inactive; negative”; (Test System: AMES SALMONELLA TYPHIMURIUM, Strain/Indicator: TA100, Metabolic Activation: RAT LIVER S-9, PHENOBARBITAL AND BETA-NAPHTHAFLAVONE, Method: STANDARD PLATE) “inactive; negative”. Also, the mutagenic call was “inactive; negative” (Test System: AMES SALMONELLA TYPHIMURIUM, Strain/Indicator: TA102, Metabolic Activation: NONE, Method: STANDARD PLATE); “inactive; negative” (Test System: AMES SALMONELLA TYPHIMURIUM, Strain/Indicator: TA102, Metabolic Activation: RAT LIVER S-9, PHENOBARBITAL AND BETA-NAPHTHAFLAVONE, Method: STANDARD PLATE); “inactive; negative” (Test System: CHINESE HAMSTER V-79, Strain/Indicator: V79 (HPRT)/6-THIOGUANINE, Metabolic Activation: NONE).

In the case of `CCCCOCCOC(=O)COc1ccc(Cl)cc1Cl`, the mutagenic call is “inactive; negative” (Test System: AMES SALMONELLA TYPHIMURIUM, Strain/Indicator: TA98, Metabolic Activation: NONE, Method: PREINCUBATION); “inactive; negative” (Test System: AMES SALMONELLA TYPHIMURIUM, Strain/Indicator: TA98, Metabolic Activation: RAT LIVER S-9, AROCLOR 1254, 10%, Method: PREINCUBATION); “inactive; negative” (Test System: AMES SALMONELLA TYPHIMURIUM, Strain/Indicator: TA100, Metabolic Activation: NONE, Method: PREINCUBATION); “inactive; negative” (Test System: AMES SALMONELLA TYPHIMURIUM, Strain/Indicator: TA100, Metabolic Activation: RAT LIVER S-9, AROCLOR 1254, 10%, Method: PREINCUBATION); “inactive; negative” (Test System: AMES SALMONELLA TYPHIMURIUM, Strain/Indicator: TA1535, Metabolic Activation: NONE, Method: PREINCUBATION); “inactive; negative” (Test System: AMES SALMONELLA TYPHIMURIUM, Strain/Indicator: TA1535, Metabolic Activation: RAT LIVER S-9, AROCLOR 1254, 10%, Method: PREINCUBATION). Moreover, the mutagenic call runs as follows: (Test System: AMES SALMONELLA TYPHIMURIUM, Strain/Indicator: TA1537, Metabolic Activation: NONE, Method: PREINCUBATION) “inactive; negative”; (Test System: AMES SALMONELLA TYPHIMURIUM, Strain/Indicator: TA1537, Metabolic Activation: RAT LIVER S-9, AROCLOR 1254, 10%, Method: PREINCUBATION) “inactive; negative”; (Test System: UDS RAT HEPATOCYTES, Strain/Indicator: THYMIDINE INCORPORATION, Metabolic Activation: NONE, Method: AUTORADIOGRAPHY) “inactive; negative”.

As to `CC(=O)N[C@@H](CC(=O)O)C(=O)O`, the mutagenic call is, setting by setting: (End Point: In vivo micronucleus, Test System: Bone marrow erythrocytes, Species: Mouse, Strain/Sex: Crl:CD1 (ICR)/Male and female, Route: Oral) “inactive; negative”; (Test System: Ames Salmonella typhimurium, Strain/Indicator: TA98, Metabolic Activation: None, Method: Standard plate) “inactive; negative”; (Test System: Ames Salmonella typhimurium, Strain/Indicator: TA98, Metabolic Activation: Rat, Liver, S-9, Aroclor 1254 (10%), Method: Standard plate) “inactive; negative”; (Test System: Ames Salmonella typhimurium, Strain/Indicator: TA100, Metabolic Activation: None, Method: Standard plate) “inactive; negative”; (Test System: Ames Salmonella typhimurium, Strain/Indicator: TA100, Metabolic Activation: Rat, Liver, S-9, Aroclor 1254 (10%), Method: Standard plate) “inactive; negative”; (Test System: Ames Salmonella typhimurium, Strain/Indicator: TA1535, Metabolic Activation: None, Method: Standard plate) “inactive; negative”. Further, the mutagenic call is, setting by setting: (Test System: Ames Salmonella typhimurium, Strain/Indicator: TA1535, Metabolic Activation: Rat, Liver, S-9, Aroclor 1254 (10%), Method: Standard plate) “inactive; negative”; (Test System: Ames Salmonella typhimurium, Strain/Indicator: TA1537, Metabolic Activation: None, Method: Standard plate) “inactive; negative”; (Test System: Ames Salmonella typhimurium, Strain/Indicator: TA1537, Metabolic Activation: Rat, Liver, S-9, Aroclor 1254 (10%), Method: Standard plate) “inactive; negative”; (Test System: E. coli, Strain/Indicator: WP2 uvrA, Metabolic Activation: None, Method: Standard plate) “inactive; negative”; (Test System: E. coli, Strain/Indicator: WP2 uvrA, Metabolic Activation: Rat, Liver, S-9, Aroclor 1254 (10%), Method: Standard plate) “inactive; negative”.

As to `CC(Br)c1ccccc1` (stereo not given), the mutagenic call was “inactive; negative” under setting [1] and “inactive; negative” under setting [2].

Take `O=[N+]([O-])c1ccccc1SS/C(Cl)=C(\Cl)C(F)(F)F`: the mutagenic call (Test System: AMES SALMONELLA TYPHIMURIUM, Strain/Indicator: TA100(DNP6), Metabolic Activation: NONE, Method: PREINCUBATION) is “active; positive” and the mutagenic call (Test System: AMES SALMONELLA TYPHIMURIUM, Strain/Indicator: TA100(NR), Metabolic Activation: NONE, Method: PREINCUBATION) is “active; positive”.

`CCOP(=O)(OCC)N1[C@@H]2c3ccccc3-c3ccccc3[C@@H]21` (stereo not given in full): the mutagenic call was “active; positive” under setting [2] and “active; positive” (Test System: CHINESE HAMSTER V-79, Strain/Indicator: V-79/6-THIOGUANINE, Metabolic Activation: NONE, Method: STANDARD PLATE).

`ClC(Cl)C(Cl)(Cl)Cl`: the mutagenic call is “inactive; negative” (End Point: IN VITRO CHROMOSOMAL ABERRATIONS, Test System: CHINESE HAMSTER LUNG FIBROBLAST CELLS (CHL/IU), Metabolic Activation: RAT, LIVER, S-9, PHENOBARBITAL AND 5,6-BENZOFLAVONE); “inactive; negative” (End Point: IN VITRO CHROMOSOMAL ABERRATIONS, Test System: CHINESE HAMSTER OVARY CELLS, Metabolic Activation: NONE); “inactive; negative” (End Point: IN VITRO CHROMOSOMAL ABERRATIONS, Test System: CHINESE HAMSTER OVARY CELLS, Metabolic Activation: RAT, LIVER, S-9, AROCLOR 1254); “active; positive” (Test System: MOUSE LYMPHOMA, Strain/Indicator: L5178Y (TK+/TK-), Metabolic Activation: NONE, Method: MICROWELL); “inactive; negative” (Test System: MOUSE LYMPHOMA, Strain/Indicator: L5178Y (TK+/TK-), Metabolic Activation: S-9, Method: MICROWELL).

For the compound `COS(=O)(=O)c1ccccc1`, the mutagenic call (End Point: IN VITRO MICRONUCLEUS, Test System: MOUSE LYMPHOMA L5178Y CELLS, Metabolic Activation: NONE) was “active; positive”; the mutagenic call (End Point: IN VITRO MICRONUCLEUS, Test System: MOUSE LYMPHOMA L5178Y CELLS, Metabolic Activation: RAT, LIVER, S-9) is “active; positive”; the mutagenic call (End Point: In vitro micronucleus, Test System: Chinese Hamster Ovary (CHO-WBL) cells, Metabolic Activation: None) was “active; positive (p<0.05)”; the mutagenic call under setting [2] was “inactive; negative; response reported as weakly positive”; the mutagenic call (Test System: AMES SALMONELLA TYPHIMURIUM, Strain/Indicator: TA100, Metabolic Activation: RAT, LIVER, S-9, Method: STANDARD PLATE) was “active; positive”.
